Data published in a melting point compilation (Tetko et al.).

Row | SMILES | melting point [°C]
1 | Cc1ccc(-n2nc(C(=O)O)c3ccccc3c2=O)cc1Cl | 227 to 229
2 | Cc1cc(-c2nccn2Cc2ccccc2)c(=O)[nH]n1 | 215 to 217
3 | Cc1nc(-c2ccc(Cl)cc2)sc1C(C)O (stereo not drawn) | 119 to 121
4 | CC(Cl)c1nnc(-c2ccc(F)cc2)o1 (stereo not drawn) | 67 to 69
5 | CCc1n[nH]c(N)c1Br | 117 to 119
6 | Cc1ccc(NC(N)=O)c(C)c1 | 215 to 217
7 | COC(=O)c1cc(N)ccc1F | 84 to 86
8 | CC(C(=O)O)N1CCCCC1=O (stereo not drawn) | 134 to 136
9 | Oc1ccc(-c2ncc[nH]2)cc1 | 265 to 267
10 | O=C(O)c1cnc2c(cnn2Cc2ccccc2)c1 | 210 to 212
11 | O=C(O)c1ccc(COc2ccccc2)s1 | 134 to 136
12 | CS(=O)(=O)c1ccc(OCCCBr)cc1 | 93 to 95
13 | Cc1cc(O)ccc1C(C)C | 111 to 114
14 | NS(=O)(=O)c1cccc(C(=O)O)c1 | 238 to 240
15 | O=C(O)CCCn1cc(Br)cn1 | 94 to 96
16 | NS(=O)(=O)c1ccc(Cl)cn1 | 125 to 127
17 | O=S(=O)(Cl)c1ccc(S(=O)(=O)NC2CC2)cc1 | 126 to 128
18 | N#CCc1ccc([N+](=O)[O-])cc1Br | 66 to 68
19 | Nc1ccc(Cl)nc1N | 129 to 131
20 | COc1ccc(CCN2C(=O)NC(=O)C2=O)cc1 | 179 to 181
21 | OC(CC1CCCCCN1)c1cccs1 (stereo not drawn) | 60 to 62
22 | Cc1cc(Cl)c(C(=O)O)cc1C | 180 to 182
23 | O=S(=O)(Cl)c1cccc(-c2cccs2)c1 | 57 to 59
24 | CN(C)C(=O)CN1CCNCC1 | 35 to 37
25 | COc1ccc([N+](=O)[O-])c2cccnc12 | 145 to 147
26 | C/C(Cn1nc(C)cc1C)=N\O | 114 to 116
27 | COC(=O)c1ccc2ccccc2n1 | 83 to 85

Row | SMILES | melting point [°C]
28 | COc1ccc(NS(=O)(=O)c2cc(N)ccc2OC)cc1 | 133 to 135
29 | CCCn1c(=O)[nH]c(=O)c2cc(C(=O)O)cnc21 | 235 to 237
30 | O=C(O)CCS(=O)(=O)Nc1ccccc1 | 127 to 129
31 | Cc1nc(N)sc1-c1ccccc1 | 163 to 165
32 | Cc1cc(-c2csc(N)n2)c(C)o1 | 89 to 91
33 | Nc1ccc(Cl)cc1C(O)c1ccccc1 (stereo not drawn) | 105 to 107
34 | CCNC(=O)c1cccnc1Cl | 47 to 49
35 | COC(=O)c1cncc(I)c1 | 79 to 81
36 | O=C(c1cc(Br)c(S(=O)(=O)Cl)[nH]1)C(Cl)(Cl)Cl | 144 to 146
37 | Sc1nnc(C2COc3ccccc3O2)o1 (stereo not drawn) | 151 to 155
38 | O=C(O)c1ccc(C2CC2)s1 | 111 to 113
39 | O=C(O)C1CC(=O)N(c2cccc(Br)c2)C1 (stereo not drawn) | 142 to 144
40 | NCc1ccc(NC(=O)c2ccco2)cc1 | 102 to 104
41 | O=C(O)CSc1nnc(-c2cccs2)n1C1CC1 | 229 to 231
42 | O=C(O)CNC(=O)NCc1cccc([N+](=O)[O-])c1 | 153 to 155
43 | COCCOc1ccc(Cl)cc1C#N | 64 to 66
44 | CC(N)C(=O)Nc1ccc(-n2cncn2)cc1 (stereo not drawn) | 169 to 171
45 | O=C1CCSc2ccc(Br)cc21 | 49 to 51
46 | O=CC(Br)C=O | 132 to 134
47 | COc1ccccc1NC(=O)CC#N | 87 to 90
48 | Nc1nc2cc(Cl)cc(Br)c2o1 | 228 to 230
49 | O=C(O)CCCCCCNC(=O)OCc1ccccc1 | 89 to 91
50 | O=C(O)CNC(=O)c1ccc(Br)s1 | 177 to 179
51 | COc1cccc(C(=O)NN)c1OC | 77 to 79
52 | C=CC(=O)Nc1cc(OC)c(Cl)cc1OC | 124 to 126
53 | O=C(COc1ccccc1C(=O)O)Nc1ccccc1F | 197 to 199
54 | CC(c1nc(-c2ccc(Cl)cc2)no1)N1CCNCC1 (stereo not drawn) | 78 to 80

Results, then the molecule that gave them:

Row | melting point [°C] | SMILES
55 | 143 to 145 | Cc1cc(C)c(CCNC(=O)CCl)c(C)c1
56 | 85 to 87 | NS(=O)(=O)CC1CCOCC1
57 | 185 to 187 | O=C(CCl)Nc1ccc(S(=O)(=O)N2CCCC2)cc1
58 | 68 to 70 | CCS(=O)(=O)NCCS(=O)(=O)Cl
59 | 253 to 255 | CCOc1ccc(NC(=O)c2ccc(NC(=O)CCl)cc2)cc1
60 | 231 to 233 | Cc1cc(-c2ccccc2)nc2cc(O)nn12
61 | 276 to 278 | O=c1[nH]c(Cl)nc2c1cnn2-c1ccccc1
62 | 114 to 116 | Cc1nc(Cl)cc(-n2ccnc2)n1
63 | 113 to 115 | Cc1cccc(C(=O)N2CCSCC2)c1N
64 | 79 to 81 | NC(COC1CCOCC1)=NO
65 | 206 to 208 | O=C(O)C(CO)NS(=O)(=O)c1ccc(Cl)cc1 (stereo not drawn)
66 | 182 to 184 | CCCOc1ccc(C(=O)O)cc1OC
67 | 40 to 42 | CCOC(=O)COc1cccc(Br)c1
68 | 125 to 127 | O=C(O)c1cccc(C(=O)N2CCCC2)n1
69 | 102 to 104 | CC(Cc1nnc(S)o1)c1ccccc1 (stereo not drawn)
70 | 82 to 84 | COc1ccc2cc(C(C)Cl)ccc2c1 (stereo not drawn)
71 | 124 to 127 | CNCC(O)COc1ccccc1C(F)(F)F (stereo not drawn)
72 | 183 to 185 | COC(=O)c1coc(-c2cccc(C#N)c2)n1
73 | 85 to 87 | Cc1cccc(NC2CCNCC2)n1
74 | 44 to 46 | Cc1ccc(N)cc1S(=O)(=O)N1CCCCCC1
75 | 154 to 156 | O=C(O)c1nccnc1Sc1ccccc1
76 | 92 to 94 | O=C(O)C=CC(=O)NCc1cccnc1
77 | 164 to 166 | O=C(O)c1cccc(Oc2ccc(Cl)cc2)c1
78 | 162 to 164 | Sc1nnnn1-c1ccc(Cl)cc1
79 | 81 to 83 | OCc1ncc(-c2ccc(F)cc2)o1

Row | melting point [°C] | SMILES
80 | 140 to 142 | Nc1c(Cl)nc(-c2ccccc2)nc1Cl
81 | 118 to 120 | Nc1ccn(CCN2CCNC2=O)n1
82 | 170 to 172 | Cc1ccc2cccnc2c1S(N)(=O)=O
83 | 125 to 127 | O=C(CCl)NCC(=O)N1CCCC1
84 | 59 to 61 | NCc1nncn1-c1ccccc1
85 | 225 to 227 | CC(C)NS(=O)(=O)c1ccc(C(=O)O)cc1
86 | 75 to 77 | CC(C)(C)OC(=O)NC1(CO)CC1
87 | 152 to 154 | Ic1ccc(OCc2ccncc2)cc1
88 | 86 to 88 | NCc1ccccc1CN1CCN(c2ccccc2)CC1
89 | 209 to 211 | Cn1nc(-c2ccncc2)cc1O
90 | 44 to 46 | CNc1cnccn1
91 | 101 to 103 | Cn1cnc2c(Br)cccc21
92 | 75 to 77 | N#CCc1nc(-c2c(F)cccc2F)cs1
93 | 240 to 242 | Cc1cc(=O)c(C(=O)O)nn1-c1ccccc1[N+](=O)[O-]
94 | 62 to 64 | FC(F)(F)CN1CCNc2ccccc21
95 | 48 to 50 | COC(=O)c1cc(S(=O)(=O)Cl)cnc1Cl
96 | 79 to 81 | CS(=O)(=O)Nc1ccccc1Br
97 | 94 to 96 | O=S1(=O)CCC(O)c2ccccc21 (stereo not drawn)
98 | 78 to 80 | N#CCc1cccc(C#N)c1
99 | 131 to 133 | COc1ccc(S(=O)(=O)NCC(=O)O)cc1
100 | 172 to 174 | CCOc1ccc(CN2C(=O)c3ccccc3C2=O)cc1C(=O)O
101 | 129 to 131 | CC(=O)CC(=O)Nc1ccc2nc(C)sc2c1
102 | 159 to 161 | O=C(O)C1CSCN1C(=O)c1c[nH]c2ccccc12 (stereo not drawn)
103 | 179 to 181 | O=[N+]([O-])c1ccc2c(c1)S(=O)(=O)C=C2
